This is an account of results in publication PMC7617969, “Carboxylic Acid Bioisosteres Boost Nurr1 Agonist Selectivity” (Journal of medicinal chemistry, 2025).

Read-outs that look alike come from different tables or passages of the source. Bounds are passed on as bounds.

The target of one experiment is T1, DHODH (Homo sapiens, UniProt Q02127).
T1 construct: using an N-terminally truncated recombinant DHODH enzyme as described previously[20]
Nature of the experiment: DHODH inhibition colorimetric assay on recombinant human protein. Format: biochemical.

The target of a further experiment is T2, Nurr1 (Homo sapiens, UniProt P43354).
T2 construct: expressed in transfected cells; host or cells: HEK293T
Nature of the experiment: Gal4-Nurr1 hybrid reporter gene assay. The following applies: for EC50 / max. activation (Nurr1): Gal4-Nurr1 hybrid reporter gene assay; for EC50: HEK293T cells, mean ± S.E.M., n ≥ 3; for max. activation (Nurr1): fold activation vs untreated control; for selectivity index DHODH/Nurr1: IC50(DHODH) / EC50(Nurr1); for efficacy_NR4A2: supplementary csv, max. activation in %. It is filed as cell-based. Background: In a reporter assay the amount or activity of a reporter protein is the signal.

Where [1] appears, read: recombinant human DHODH, colorimetric, mean ± S.E.M., n ≥ 3, read-out: IC50 (DHODH).

T2 sequence (P43354 360-595 limits assumed): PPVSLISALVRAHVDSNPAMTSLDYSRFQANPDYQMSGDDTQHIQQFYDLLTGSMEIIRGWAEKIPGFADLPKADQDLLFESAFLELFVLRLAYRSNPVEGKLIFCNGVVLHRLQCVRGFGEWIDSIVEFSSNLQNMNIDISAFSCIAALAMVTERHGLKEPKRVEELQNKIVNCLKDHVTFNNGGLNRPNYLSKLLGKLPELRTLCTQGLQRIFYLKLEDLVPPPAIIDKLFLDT
T1 sequence (Q02127 31-395): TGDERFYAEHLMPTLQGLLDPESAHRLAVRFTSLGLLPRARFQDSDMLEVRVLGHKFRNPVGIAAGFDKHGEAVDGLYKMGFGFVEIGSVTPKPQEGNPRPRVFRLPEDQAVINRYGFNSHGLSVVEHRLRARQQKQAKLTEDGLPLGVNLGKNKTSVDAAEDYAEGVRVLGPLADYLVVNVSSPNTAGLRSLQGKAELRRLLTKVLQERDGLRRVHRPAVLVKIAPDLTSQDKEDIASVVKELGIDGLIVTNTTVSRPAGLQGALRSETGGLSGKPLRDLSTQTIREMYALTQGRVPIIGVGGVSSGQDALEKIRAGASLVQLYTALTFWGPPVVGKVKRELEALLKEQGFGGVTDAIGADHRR

For the compound `[2H]C([2H])([2H])Oc1cccc(-c2c(F)c(F)c(NC(=O)c3ccsc3S(N)(=O)=O)c(F)c2F)c1` [compound 13, Sulfamoyl-N-{2,3,5,6-tetrafluoro-3'-(^2H3)methoxy-[1,1'-biphenyl]-4-yl}thiophene-3-carboxamide], the IC50 at DHODH (setting [1]) was 3330 ± 60 nM. Also, the IC50 at DHODH (supplementary csv, read-out: IC50_DHODH) came out at 3300 nM. On Nurr1, it took 1100 ± 100 nM to reach a half-maximal effect (EC50), the “max. activation (Nurr1)” value amounted to 2.09 ± 0.08 fold, the “selectivity index DHODH/Nurr1” value worked out at 3.0 and the efficacy_NR4A2 is 209%.

As for `[2H]C([2H])([2H])Oc1cccc(-c2c(F)c(F)c(NC(=O)c3ccsc3S(=O)(=O)NC(C)=O)c(F)c2F)c1` [compound 14, 2-(N-Acetylsulfamoyl)-N-{2,3,5,6-tetrafluoro-3’-(^2H3)methoxy-[1,1'-biphenyl]-4-yl}thiophene-3-carboxamide], the IC50 on DHODH (setting [1]) is 4000 ± 1000 nM. Also, on Nurr1, the half-maximal effective concentration (EC50) came out at 900 ± 100 nM, the “max. activation (Nurr1)” value came to 1.89 ± 0.06 fold, the “selectivity index DHODH/Nurr1” value turned out to be 4.4 and the efficacy_NR4A2 was 189%.

On to `[2H]C([2H])([2H])Oc1cccc(-c2c(F)c(F)c(NC(=O)c3ccsc3S(C)(=O)=O)c(F)c2F)c1` [compound 15, 2-(Methylsulfonyl)-N-{2,3,5,6-tetrafluoro-3’-(^2H3)methoxy-[1,1'-biphenyl]-4-yl}thiophene-3-carboxamide], for which the inhibition at 100 µM on DHODH (recombinant human DHODH) is 49 ± 1%. For the same compound, at Nurr1, it took 1200 ± 100 nM to reach a half-maximal effect (EC50), the “max. activation (Nurr1)” value came to 2.05 ± 0.08 fold, the “selectivity index DHODH/Nurr1” value is reported as roughly 100 and the efficacy_NR4A2 is given as 205%.

For `[2H]C([2H])([2H])Oc1cccc(-c2c(F)c(F)c(NC(=O)c3ccsc3S(C)(=N)=O)c(F)c2F)c1` (centres unmarked) [compound 16, 2-(S-Methylsulfonimidoyl)-N-{2,3,5,6-tetrafluoro-3’-(^2H3)methoxy-[1,1'-biphenyl]-4-yl}thiophene-3-carboxamide], the inhibition at 100 µM on DHODH (recombinant human DHODH) worked out at 76 ± 6%. Moreover, on Nurr1, the concentration for a half-maximal effect (EC50) worked out at 1200 ± 200 nM, the “max. activation (Nurr1)” value came to 2.17 ± 0.11 fold, the “selectivity index DHODH/Nurr1” value is listed as roughly 25 and the efficacy_NR4A2 is listed as 217%.

In the case of `[2H]C([2H])([2H])Oc1cccc(-c2c(F)c(F)c(NC(=O)c3ccsc3-c3c(O)c(=O)c3=O)c(F)c2F)c1` [compound 17, 2-(2-Hydroxy-3,4-dioxocyclobut-1-en-1-yl)-N-{2,3,5,6-tetrafluoro-3’-(^2H3)methoxy-[1,1'-biphenyl]-4-yl}thiophene-3-carboxamide], on DHODH (setting [1]), the IC50 amounted to 700 ± 500 nM. Also, on Nurr1, a half-maximal response (EC50) required 100 ± 50 nM, the “max. activation (Nurr1)” value was determined as 1.97 ± 0.43 fold, the “selectivity index DHODH/Nurr1” value is 7 and the efficacy_NR4A2 came to 197%.

Turning to `[2H]C([2H])([2H])Oc1cccc(-c2c(F)c(F)c(NC(=O)c3ccsc3-c3noc(=O)[nH]3)c(F)c2F)c1` [compound 18, 2-(5-Oxo-4,5-dihydro-1,2,4-oxadiazol-3-yl)-N-{2,3,5,6-tetrafluoro-3’-(^2H3)methoxy-[1,1'-biphenyl]-4-yl}thiophene-3-carboxamide], the IC50 on DHODH (setting [1]) came out at 660 ± 80 nM. Further, on Nurr1, it took 50 ± 10 nM to reach a half-maximal effect (EC50), the “max. activation (Nurr1)” value is 1.86 ± 0.11 fold, the “selectivity index DHODH/Nurr1” value is on record as 13 and the efficacy_NR4A2 amounted to 186%.

With `[2H]C([2H])([2H])Oc1cccc(-c2c(F)c(F)c(NC(=O)c3ccsc3-c3nn[nH]n3)c(F)c2F)c1` [compound 19, N-{2,3,5,6-Tetrafluoro-3’-(^2H3)methoxy-[1,1'-biphenyl]-4-yl}-2-(2H-tetrazol-5-yl)thiophene-3-carboxamide], the IC50 at DHODH (setting [1]) is 600 ± 200 nM. For the same compound, on Nurr1, a half-maximal effect (EC50) was put at 21 ± 2 nM, the “max. activation (Nurr1)” value worked out at 2.14 ± 0.11 fold, the “selectivity index DHODH/Nurr1” value stood at 28 and the efficacy_NR4A2 is 214%.

As for `[2H]C([2H])([2H])Oc1cccc(-c2c(F)c(F)c(NC(=O)c3cscc3-c3noc(=O)[nH]3)c(F)c2F)c1` [compound 21, 4-(5-Oxo-4,5-dihydro-1,2,4-oxadiazol-3-yl)-N-{2,3,5,6-tetrafluoro-3’-(^2H3)methoxy-[1,1'-biphenyl]-4-yl}thiophene-3-carboxamide], the IC50 on DHODH (setting [1]) amounted to 400 ± 60 nM. Moreover, on Nurr1, the 50% effective concentration (EC50) came out at 30 ± 10 nM, the “max. activation (Nurr1)” value is reported as 2.2±0.1 fold, the “selectivity index DHODH/Nurr1” value is given as 13 and the efficacy_NR4A2 was 220%.

On to `[2H]C([2H])([2H])Oc1cccc(-c2c(F)c(F)c(NC(=O)c3cscc3-c3nn[nH]n3)c(F)c2F)c1` [compound 22, N-{2,3,5,6-Tetrafluoro-3’-(^2H3)methoxy-[1,1'-biphenyl]-4-yl}-4-(2H-tetrazol-5-yl)thiophene-3-carboxamide], for which, at DHODH (setting [1]), the IC50 came to 43 ± 6 nM. In addition, on Nurr1, a half-maximal response (EC50) required 11 ± 2 nM, the “max. activation (Nurr1)” value came to 2.5±0.2 fold, the “selectivity index DHODH/Nurr1” value is given as 3.9 and the efficacy_NR4A2 is given as 250%.

With `[2H]C([2H])([2H])Oc1cccc(-c2c(F)c(F)c(NC(=O)c3cscc3-c3noc(=S)[nH]3)c(F)c2F)c1` [compound 23, N-{2,3,5,6-Tetrafluoro-3’-(^2H3)methoxy-[1,1'-biphenyl]-4-yl}-4-(5-thioxo-4,5-dihydro-1,2,4-oxadiazol-3-yl)thiophene-carboxamide], the IC50 on DHODH (setting [1]) is 62 ± 4 nM. Further, at Nurr1, the EC50 was 36 ± 3 nM, the “max. activation (Nurr1)” value amounted to 1.77±0.04 fold, the “selectivity index DHODH/Nurr1” value turned out to be 1.7 and the efficacy_NR4A2 is listed as 177%.

On to `[2H]C([2H])([2H])Oc1cccc(-c2c(F)c(F)c(NC(=O)c3cscc3-c3nc(=O)on3C)c(F)c2F)c1` [compound 24, 4-(2-Methyl-5-oxo-2,5-dihydro-1,2,4-oxadiazol-3-yl)-N-{2,3,5,6-tetrafluoro-3’-(^2H3)methoxy-[1,1'-biphenyl]-4-yl}thiophene-3-carboxamide], for which the IC50 at DHODH (setting [1]) was found to be 11100 ± 600 nM. At Nurr1, the EC50 was 2600 ± 300 nM, the “max. activation (Nurr1)” value is listed as 1.9±0.2 fold, the “selectivity index DHODH/Nurr1” value worked out at 4.2 and the efficacy_NR4A2 is reported as 190%.

Take `[2H]C([2H])([2H])Oc1cccc(-c2c(F)c(F)c(NC(=O)c3cscc3-c3nc(=S)on3C)c(F)c2F)c1` [compound 25, 4-(2-Methyl-5-thioxo-2,5-dihydro-1,2,4-oxadiazol-3-yl)-N-{2,3,5,6-tetrafluoro-3’-(^2H3)methoxy-[1,1'-biphenyl]-4-yl}thiophene-3-carboxamide]: the inhibition at 100 µM on DHODH (recombinant human DHODH) stood at 40 ± 8%. In addition, on Nurr1, the EC50 amounted to 900 ± 100 nM, the “max. activation (Nurr1)” value was found to be 2.3±0.2 fold, the “selectivity index DHODH/Nurr1” value is greater than 100 and the efficacy_NR4A2 stood at 230%.

On to `[2H]C([2H])([2H])Oc1cccc(-c2c(F)c(F)c(NC(=O)c3cscc3-c3n[nH]c(=O)o3)c(F)c2F)c1` [compound 26, 4-(5-Oxo-4,5-dihydro-1,3,4-oxadiazol-2-yl)-N-{2,3,5,6-tetrafluoro-3’-(^2H3)methoxy-[1,1'-biphenyl]-4-yl}thiophene-3-carboxamide], for which the IC50 at DHODH (setting [1]) amounted to 100 ± 10 nM. Moreover, at Nurr1, the concentration for a half-maximal effect (EC50) turned out to be 17 ± 2 nM, the “max. activation (Nurr1)” value was 1.8±0.1 fold, the “selectivity index DHODH/Nurr1” value came out at 5.9 and the efficacy_NR4A2 was determined as 180%.

`[2H]C([2H])([2H])Oc1cccc(-c2c(F)c(F)c(NC(=O)c3cscc3-c3n[nH]c(=S)o3)c(F)c2F)c1` [compound 27, N-(2,3,5,6-Tetrafluoro-3’-(^2H3)methoxy-[1,1'-biphenyl]-4-yl)-4-{5-thioxo-4,5-dihydro-1,3,4-oxadiazol-2-yl}thiophene-3-carboxamide]: on DHODH (setting [1]), the IC50 is 960 ± 90 nM. In addition, on Nurr1, the EC50 was 160 ± 50 nM, the “max. activation (Nurr1)” value came to 1.7±0.1 fold, the “selectivity index DHODH/Nurr1” value is on record as 6.0 and the efficacy_NR4A2 amounted to 170%.

For `[2H]C([2H])([2H])Oc1cccc(-c2c(F)c(F)c(NC(=O)c3cscc3C3=NOS(=O)N3)c(F)c2F)c1` (centres unmarked) [compound 28, 4-(2-Oxido-3H-1,2,3,5-oxathiadiazol-4-yl)-N-{2,3,5,6-tetrafluoro-3’-(^2H3)methoxy-[1,1'-biphenyl]-4-yl}thiophene-3-carboxamide], at DHODH (setting [1]), the IC50 stood at 1200 ± 200 nM. Besides, on Nurr1, the half-maximal effective concentration (EC50) was 39 ± 5 nM, the “max. activation (Nurr1)” value is 2.4±0.1 fold, the “selectivity index DHODH/Nurr1” value was found to be 30 and the efficacy_NR4A2 is reported as 240%.

For the compound `[2H]C([2H])([2H])Oc1cccc(-c2c(F)c(F)c(NC(=O)C3=C(C(=O)O)COC3)c(F)c2F)c1` [compound 29], on Nurr1, the “max. activation (Nurr1)” value turned out to be 2.5±0.1 fold and the efficacy_NR4A2 worked out at 250%.

Consider `[2H]C([2H])([2H])Oc1cccc(-c2c(F)c(F)c(NC(=O)C3=C(c4nn[nH]n4)COC3)c(F)c2F)c1` [compound 30, N-{2,3,5,6-Tetrafluoro-3’-(^2H3)methoxy-[1,1'-biphenyl]-4-yl}-4-(2H-tetrazol-5-yl)-2,5-dihydrofuran-3-carboxamide], for which, on DHODH (setting [1]), the IC50 amounted to 3000 ± 1000 nM. Also, at Nurr1, the “Nurr1 preference/selectivity over DHODH” value worked out at 14 fold, it took 220 nM to reach a half-maximal effect (EC50), the “max. activation (Nurr1)” value is 2.0±0.2 fold and the “selectivity index DHODH/Nurr1” value is listed as 13.6. The efficacy_NR4A2 at Nurr1 worked out at 200%.

As for `[2H]C([2H])([2H])Oc1cccc(-c2c(F)c(F)c(NC(=O)c3ccccc3-c3nn[nH]n3)c(F)c2F)c1` [compound 31, N-{2,3,5,6-Tetrafluoro-3’-(^2H3)methoxy-[1,1'-biphenyl]-4-yl}-2-(2H-tetrazol-5-yl)benzamide], at DHODH (setting [1]), the IC50 came out at 260 ± 40 nM. Moreover, on Nurr1, the 50% effective concentration (EC50) turned out to be 140 ± 10 nM, the “max. activation (Nurr1)” value is on record as 1.9±0.1 fold, the “selectivity index DHODH/Nurr1” value came out at 1.9 and the efficacy_NR4A2 was determined as 190%.

As a reminder, the EC50 is the concentration at which the effect is half-maximal. A high value points to a less potent agent. Usually inhibition stands for the drop in the measured response relative to a control, in per cent.
